Source: patent publication US12202832B2, “Heterocyclic compounds having a calcium-sensing receptor antagonistic activity” (TAKEDA PHARMACEUTICAL COMPANY LIMITED, priority 2017, dated 2025)

What was measured:
CYP3A4 = biological target: T1, CYP3A4 (Homo sapiens, UniProt P08684); test: CYP3A4 TDI in human liver microsomes (testosterone 6β-hydroxylation); format: in vitro ADME; settings: 30 μM test compound, 60 min vs 0 min preincubation, solvent DMSO/acetonitrile (1:4, v/v)
T1 construct: Human liver microsomes purchased from XenoTech, LLC (Lenexa, KS) was used; tissue XenoTech, LLC (Lenexa, KS); host or cells: human liver microsomes
T1 sequence (P08684 whole entry): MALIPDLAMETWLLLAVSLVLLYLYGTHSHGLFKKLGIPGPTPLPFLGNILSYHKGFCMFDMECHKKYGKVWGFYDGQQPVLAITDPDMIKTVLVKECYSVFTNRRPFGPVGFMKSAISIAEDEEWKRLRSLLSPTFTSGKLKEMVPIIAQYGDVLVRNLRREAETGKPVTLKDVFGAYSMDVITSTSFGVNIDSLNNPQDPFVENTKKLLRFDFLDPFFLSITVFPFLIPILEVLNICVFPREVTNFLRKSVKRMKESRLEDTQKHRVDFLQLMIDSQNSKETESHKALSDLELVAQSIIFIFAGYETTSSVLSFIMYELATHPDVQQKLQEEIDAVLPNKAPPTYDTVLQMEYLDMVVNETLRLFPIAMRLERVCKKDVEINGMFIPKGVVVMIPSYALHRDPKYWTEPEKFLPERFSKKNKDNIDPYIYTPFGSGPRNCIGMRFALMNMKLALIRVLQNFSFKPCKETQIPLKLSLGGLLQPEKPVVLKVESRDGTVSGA
Procedure: Human liver microsomes purchased from XenoTech, LLC (Lenexa, KS) was used. Test compounds were dissolved in acetonitrile or DMSO/acetonitrile (1:4, v/v). To a human liver microsomes solution adjusted with phosphate buffer (pH 7.4), the test compound solution was added to obtain a human liver microsomes reaction solution having the test compound concentration of 30 μM. To the human liver microsome reaction solution, NADPH production system was added, and the mixture was preincubated at 37° C. for 0 minutes or 60 minutes. After the preincubation, probe substrate testosterone was added, and testosterone metabolite 6β-hydroxytestosterone was analyzed by LC/MS/MS to evaluate CYP3A4 enzymatic activity.
The enzyme activity (% of control) at each preincubation point was calculated from the following equation: % of control={(activity of test compound addition group)/(activity of test compound non-addition group)}×100.
The remaining activity (% remaining) after 60 minutes of preincubation was calculated from the following equation: Remaining activity (%)={activity after 60 minutes (% of control60 min)}/{activity after 0 minutes (% of control0 min)}×100.

human CaSR = biological target: T2, human CaSR (Homo sapiens, UniProt P41180); test: Human CaSR antagonist activity (NFAT-Luciferase reporter in CHO cells); format: cell-based; settings: CHO, CaCl2 final 1.3 mM, 100% = reference antagonist at 10 μM, read-out: Inhibition rate (%) at 3.3 μM
T2 construct: expressed in transfected cells; host or cells: CHO cells
T2 sequence (P41180 20-1078): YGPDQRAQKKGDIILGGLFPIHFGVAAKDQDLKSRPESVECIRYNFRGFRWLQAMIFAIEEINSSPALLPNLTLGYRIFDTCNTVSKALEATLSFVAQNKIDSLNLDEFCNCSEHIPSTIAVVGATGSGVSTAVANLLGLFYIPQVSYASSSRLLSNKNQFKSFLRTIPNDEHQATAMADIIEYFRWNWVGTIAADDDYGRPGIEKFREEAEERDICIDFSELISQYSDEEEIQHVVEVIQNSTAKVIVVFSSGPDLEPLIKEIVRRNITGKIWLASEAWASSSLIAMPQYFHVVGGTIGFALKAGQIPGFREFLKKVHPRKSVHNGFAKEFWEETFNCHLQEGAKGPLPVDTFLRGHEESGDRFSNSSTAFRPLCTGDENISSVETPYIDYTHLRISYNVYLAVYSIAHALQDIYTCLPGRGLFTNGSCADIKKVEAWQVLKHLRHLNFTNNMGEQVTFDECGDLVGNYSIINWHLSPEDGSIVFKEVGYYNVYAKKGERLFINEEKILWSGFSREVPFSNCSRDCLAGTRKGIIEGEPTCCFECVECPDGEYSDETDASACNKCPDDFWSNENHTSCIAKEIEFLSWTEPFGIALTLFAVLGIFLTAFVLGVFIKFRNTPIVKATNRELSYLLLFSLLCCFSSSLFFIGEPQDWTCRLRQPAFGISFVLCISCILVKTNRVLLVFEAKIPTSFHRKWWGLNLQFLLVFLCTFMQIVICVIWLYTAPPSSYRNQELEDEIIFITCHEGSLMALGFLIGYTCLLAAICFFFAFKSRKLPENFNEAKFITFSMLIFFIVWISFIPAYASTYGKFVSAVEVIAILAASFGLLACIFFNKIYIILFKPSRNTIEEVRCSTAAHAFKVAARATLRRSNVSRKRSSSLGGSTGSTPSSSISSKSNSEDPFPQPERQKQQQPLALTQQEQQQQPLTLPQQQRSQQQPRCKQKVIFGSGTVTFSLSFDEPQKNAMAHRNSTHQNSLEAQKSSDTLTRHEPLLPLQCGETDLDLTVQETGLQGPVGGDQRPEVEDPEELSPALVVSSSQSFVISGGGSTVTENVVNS
Procedure: CaSR antagonist activity measurement was performed using Bright-Glo Luciferase assay system (Promega Corporation). CHO cells in which human CaSR and NFAT-Luciferase reporter gene were forcibly expressed were suspended in MEM alpha (Wako Pure Chemical Industries, Ltd.) containing 10% dialyzed serum (HyClone). The cells in suspension was seeded in 384-well white plate (Corning) at 10,000/20 μL/well, and cultured in an incubator of 37° C., 5% CO2 for one day. A diluent of Test compound was prepared with assay buffer (MEM alpha containing 10 mM HEPES (Life Technologies) and 10% dialysis serum). The diluent was added to the plate at 5 μL/well and allowed to stand at 37° C. for 10 minutes. Further, a diluent of 7.8 mM CaCl2 prepared with assay buffer (final concentration 1.3 mM) was added at 5 μl/well and allowed to stand in an incubator of 37° C., 5% CO2 for 2 hours. Bright-Glo reagents (Promega Corporation) were added at 10 μL/well, and the obtained mixture was stirred for 5 minutes, and then luminescence intensity was measured using Multi-label reader Envision (PerkinElmer, Inc.). The activity (%) of the test compound was calculated with the definitions in which the luminescence intensity when DMSO is added in place of the test compound is defined as 0% inhibition; and the luminescence intensity when (5R)—N-(1-ethyl-1-(4-ethylphenyl)propyl)-2,7,7-trimethyl-5-phenyl-4,5,6,7-tetrahydropyrazolo[1,5-a] Pyrimidine-3-carboxamide at final concentration of 10 μM is added is defined as 100% inhibition.

For CCc1ccc([C@@](CC)(NC(=O)c2c(C)nn3c2N[C@@H](c2ccccc2)CC3(C)C)C(=O)N[C@@H](C)C(N)=O)cc1 [Example 1, (5R)-N-((2R)-1-(((2S)-1-Amino-1-oxopropan-2-yl)amino)-2-(4-ethylphenyl)-1-oxobutan-2-yl)-2,7,7-trimethyl-5-phenyl-4,5,6,7-tetrahydropyrazolo[1,5-a]pyrimidine-3-carboxamide], the “Remaining Activity” value (CYP3A4) was 96.2% and the inhibition at 3.3 µM (human CaSR) was 103%.
